The record followed here is patent US20230174486A1, “NON-LYSOSOMAL GLUCOSYLCERAMIDASE INHIBITORS AND USES THEREOF” (ALECTOS THERAPEUTICS lNC., priority 2020, published 2023).

Experiment [1] concerns the target T1, human non-lysosomal glucosylceramidase (GBA2) (Homo sapiens, UniProt Q9HCG7).
T1 sequence (Q9HCG7 1-927): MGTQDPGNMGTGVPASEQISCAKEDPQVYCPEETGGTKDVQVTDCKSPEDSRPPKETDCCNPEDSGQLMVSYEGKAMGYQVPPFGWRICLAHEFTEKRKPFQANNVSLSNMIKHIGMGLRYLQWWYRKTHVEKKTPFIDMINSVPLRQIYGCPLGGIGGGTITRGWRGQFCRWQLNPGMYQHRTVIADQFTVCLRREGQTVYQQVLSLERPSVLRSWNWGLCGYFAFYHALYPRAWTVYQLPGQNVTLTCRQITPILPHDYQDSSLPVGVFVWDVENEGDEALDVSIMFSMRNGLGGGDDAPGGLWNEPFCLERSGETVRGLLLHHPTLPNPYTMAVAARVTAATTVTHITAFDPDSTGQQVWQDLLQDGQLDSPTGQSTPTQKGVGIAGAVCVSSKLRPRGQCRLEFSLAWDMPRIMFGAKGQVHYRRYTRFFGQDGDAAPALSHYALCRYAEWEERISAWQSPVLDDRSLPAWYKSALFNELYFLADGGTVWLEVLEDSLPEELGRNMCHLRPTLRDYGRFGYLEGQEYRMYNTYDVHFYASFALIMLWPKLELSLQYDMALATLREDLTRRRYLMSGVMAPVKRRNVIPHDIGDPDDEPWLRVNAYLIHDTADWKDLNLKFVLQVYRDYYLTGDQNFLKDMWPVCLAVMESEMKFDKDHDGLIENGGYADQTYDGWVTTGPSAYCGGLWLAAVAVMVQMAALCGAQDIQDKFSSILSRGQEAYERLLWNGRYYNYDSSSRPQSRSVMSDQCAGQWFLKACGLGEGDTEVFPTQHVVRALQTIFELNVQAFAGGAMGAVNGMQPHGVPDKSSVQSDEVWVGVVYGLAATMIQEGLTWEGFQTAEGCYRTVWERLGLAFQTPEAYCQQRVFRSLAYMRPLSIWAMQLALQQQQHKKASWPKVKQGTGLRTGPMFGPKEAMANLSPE
Kind of experiment: Binding specificity for GBA2 over other molecules (ratio of Ki or IC50 values). Type of experiment: biochemical. The conditions noted are these: qualitative statement, no values or other enzyme given. The source says:
In some embodiments, one or more of the compounds according to the invention may specifically bind a GBA2. In alternative embodiments, one or more of the compounds according to the invention may specifically bind the active site of a GBA2. […] In alternative embodiments, one or more of the compounds according to the invention may specifically bind the human non-lysosomal glucosylceramidase (GBA2) over the human lysosomal glucosylceramidase (GCase) and/or the human cytosolic glucosylceramidase (GBA3). In alternative embodiments, one or more of the compounds according to the invention may specifically bind the human non-lysosomal glucosylceramidase (GBA2) over the human glucosylceramide synthase (GCS). In alternative embodiments, one or more of the compounds according to the invention may specifically bind the human non-lysosomal glucosylceramidase (GBA2) over an intestinal alpha-glucosidase, where the intestinal alpha-glucosidase may be a sucrase-isomaltase or a maltase-glucoamylase.

The target of the next experiment is T2, human GBA2 (Homo sapiens, UniProt Q9HCG7).
T2 construct: cellular homogenate
T2 sequence (Q9HCG7 1-927): T1 sequence (Q9HCG7 1-927)
Kind of experiment: Inhibition of GBA2 in cell lysate (4-methylumbelliferone-β-D glucopyranoside substrate). Type of experiment: biochemical. The conditions noted are these: homogenate of HEK293T cells stably overexpressing human GBA2, pH 5.5, 37° C., GCase inhibitor present. Here is the method:
Stable GBA2-expressing HEK293T cells were generated as follows. The PCR-amplified human GBA2 (GBA2 nucleotide accession number BC011363) using the following primers: Sense 5’---CGCAAATGGGCGGTAGGCGTG---3’ and antisense 5’---TAGTCAGCCATGGGGCGGAGA ---3’) was cloned into pLenti-GIII-CMV by ABM Inc. The correctness of the construct was verified by sequencing. Lentivirus particles containing GBA2 in the pLenti-GIII-CMV plasmid were prepared using a third Generation Virus Packaging Mix (ABM cat# LV053-G074) in HEK293T cells and supplied as a virus particle suspension. The virus suspension was used for infection of HEK293T cells. Cell populations stably expressing human GBA2 were selected using puromycin for several weeks as determined by activity assays and western blot.
Various concentrations of test compounds were prepared in DMSO and then diluted into buffer consisting of 100 mM citric acid, 200 mM disodium phosphate with 1% v/v C10E6, pH 5.5. Cellular homogenates (0.25 mg/mL) of the stable HEK293T-overexpressing GBA2 cell line were preincubated for 10 min on ice with an inhibitor of GCase (20 µM (6R,7R,8S)-8-ethyl-4-azaspiro[2.5]octane-6,7-diol). The reaction solution consisted of 20 µL of 750 µM 4-methylumbelliferone-β-D glucopyranoside in 5% DMSO in the same buffer, 20 µL of GBA2-cellular homogenate pre-treated with (6R,7R,8S)-8-ethyl-4-azaspiro[2.5]octane-6,7-diol and 20 µL of various concentrations of test compound in 10% DMSO in the same buffer. The final concentrations in the reaction were 0.083 mg/mL GBA2-cellular homogenate, 250 µM 4-methylumbelliferone-β-D glucopyranoside, and various concentrations of inhibitor. The inhibitor and GBA2-cellular homogenate were preincubated together for 5 min at 37° C. The reaction was initiated by addition of substrate and allowed to proceed for 20 min at 37° C. to assess GBA2 activity. Reactions were stopped by the addition of an equal volume (60 µL) of 0.5 M NaOH, 0.3 M glycine, pH 10.5. Fluorescence was measured on a Biotek Synergy H4 plate reader at wavelengths of 365 nm for excitation and 450 nm for emission. Incubations without added enzyme or added inhibitors were used to define no enzyme activity and maximal enzyme activity, respectively. IC50 values were determined by fitting the data to a log[inhibitor concentration] versus response curve using GraphPad Prism. IC50 values were calculated as the concentration of inhibitor required to inhibit GBA2 activity by 50%.

Take `OC[C@H]1[C@@H](O)[C@H](O)[C@@H](O)CN1CCc1ccc(-c2ccccc2)cc1` [Example 20, (2S,3R,4R,5S)-1-(2-([1,1′-biphenyl]-4-yl)ethyl)-2-(hydroxymethyl)piperidine-3,4,5-triol]: the “binding specificity, Ki(other molecule)/Ki(GBA2) or IC50(other molecule)/IC50(GBA2)” value (shortened to “binding specificity”) in experiment [1] was “enhanced binding specificity”. In addition, the “GBA2 IC50” value on human GBA2 is “∗∗∗”.

Regarding `OC[C@H]1[C@@H](O)[C@H](O)[C@@H](O)CN1CCc1c(F)cc(C2CCOCC2)cc1F` [Example 21, (2S,3R,4R,5S)-1-(2,6-difluoro-4-(tetrahydro-2H-pyran-4-yl)phenethyl)-2-(hydroxymethyl)piperidine-3,4,5-triol], the “binding specificity” value in experiment [1] is “enhanced binding specificity”. Besides, at human GBA2, the “GBA2 IC50” value is on record as “∗∗∗”.

With `CCCCOc1ccc(CCN2C[C@H](O)[C@@H](O)[C@H](O)[C@@H]2CO)cc1` [Example 22, (2S,3R,4R,5S)-1-(4-butoxyphenethyl)-2-(hydroxymethyl)piperidine-3,4,5-triol], in experiment [1], the “binding specificity” value is “enhanced binding specificity”. Moreover, at human GBA2, the “GBA2 IC50” value was “∗∗∗”.

`CCCCOc1cc(F)c(CCN2C[C@H](O)[C@@H](O)[C@H](O)[C@@H]2CO)c(F)c1` [Example 23, (2S,3R,4R,5S)-1-(4-butoxy-2,6-difluorophenethyl)-2-(hydroxymethyl)piperidine-3,4,5-triol]: in experiment [1], the “binding specificity” value was “enhanced binding specificity”. Moreover, the “GBA2 IC50” value at human GBA2 is reported as “∗∗∗”.

Consider `OC[C@H]1[C@@H](O)[C@H](O)[C@@H](O)CN1CC1CCN(c2ccc(F)cc2)CC1` [Example 24, (2S,3R,4R,5S)-1-((1-(4-fluorophenyl)piperidin-4-yl)methyl)-2-(hydroxymethyl)piperidine-3,4,5-triol], for which the “binding specificity” value in experiment [1] is given as “enhanced binding specificity”. The “GBA2 IC50” value at human GBA2 is given as “∗∗∗”.

As for `OC[C@H]1[C@@H](O)[C@H](O)[C@@H](O)CN1C[C@H]1CCN(c2ncccc2C(F)(F)F)C1` [Example 25, (2S,3R,4R,5S)-2-(hydroxymethyl)-1—(((R)—1-(3-(trifluoromethyl)pyridin-2-yl)pyrrolidin-3-yl)methyl)piperidine-3,4,5-triol], in experiment [1], the “binding specificity” value is recorded as “enhanced binding specificity”. Also, at human GBA2, the “GBA2 IC50” value is on record as “∗∗∗”.

As to `OC[C@H]1[C@@H](O)[C@H](O)[C@@H](O)CN1C[C@@H]1CCN(c2ncccc2C(F)(F)F)C1` [Example 27, (2S,3R,4R,5S)-2-(hydroxymethyl)-1—(((S)—1-(3-(trifluoromethyl)pyridin-2-yl)pyrrolidin-3-yl)methyl)piperidine-3,4,5-triol], in experiment [1], the “binding specificity” value was “enhanced binding specificity”. Further, the “GBA2 IC50” value on human GBA2 was “∗∗∗”.

As for `OC[C@H]1[C@@H](O)[C@H](O)[C@@H](O)CN1C[C@@H]1CCN(c2nc(C(F)(F)F)cs2)C1` [Example 28, (2S,3R,4R,5S)-2-(hydroxymethyl)-1—(((S)—1-(4-(trifluoromethyl)thiazol-2-yl)pyrrolidin-3-yl)methyl)piperidine-3,4,5-triol], in experiment [1], the “binding specificity” value is recorded as “enhanced binding specificity”. Besides, on human GBA2, the “GBA2 IC50” value is recorded as “∗∗∗”.

For the molecule `OC[C@H]1[C@@H](O)[C@H](O)[C@@H](O)CN1C[C@H]1CCCN(c2ncccc2C(F)(F)F)C1` [Example 29, (2S,3R,4R,5S)-2-(hydroxymethyl)-1—(((R)—1-(3-(trifluoromethyl)pyridin-2-yl)piperidin-3-yl)methyl)piperidine-3,4,5-triol], the “binding specificity” value in experiment [1] is given as “enhanced binding specificity”. On human GBA2, the “GBA2 IC50” value is listed as “∗∗∗”.

Turning to `OC[C@H]1[C@@H](O)[C@H](O)[C@@H](O)CN1C[C@@H]1CCCN(c2ncccc2C(F)(F)F)C1` [Example 31, (2S,3R,4R,5S)-2-(hydroxymethyl)-1—(((S)—1-(3-(trifluoromethyl)pyridin-2-yl)piperidin-3-yl)methyl)piperidine-3,4,5-triol], the “binding specificity” value in experiment [1] is given as “enhanced binding specificity”. Besides, the “GBA2 IC50” value on human GBA2 is given as “∗∗∗”.

For `OC[C@H]1[C@@H](O)[C@H](O)[C@@H](O)CN1C[C@@H]1CCCN(c2nc(C(F)(F)F)cs2)C1` [Example 32, (2S,3R,4R,5S)-2-(hydroxymethyl)-1—(((S)—1-(4-(trifluoromethyl)thiazol-2-yl)piperidin-3-yl)methyl)piperidine-3,4,5-triol], in experiment [1], the “binding specificity” value is “enhanced binding specificity”. At human GBA2, the “GBA2 IC50” value is “∗∗∗”.

On to `OC[C@H]1[C@@H](O)[C@H](O)[C@@H](O)CN1C[C@H]1CC[C@@H](C(F)F)CC1` [Example 311, (2S,3R,4R,5S)-1-(((1s,4R)-4-(difluoromethyl)cyclohexyl)methyl)-2-(hydroxymethyl)piperidine-3,4,5-triol], for which the “binding specificity” value in experiment [1] is on record as “enhanced binding specificity”. Moreover, the “GBA2 IC50” value at human GBA2 is recorded as “∗∗∗”.

For the molecule `OC[C@H]1[C@@H](O)[C@H](O)[C@@H](O)CN1C[C@H]1CC[C@H](C(F)F)CC1` [Example 312, (2S,3R,4R,5S)-1-(((1r,4S)-4-(difluoromethyl)cyclohexyl)methyl)-2-(hydroxymethyl)piperidine-3,4,5-triol], in experiment [1], the “binding specificity” value is “enhanced binding specificity”. Besides, the “GBA2 IC50” value on human GBA2 was “∗∗∗”.

On to `CC(F)(F)[C@H]1CC[C@@H](CN2C[C@H](O)[C@@H](O)[C@H](O)[C@@H]2CO)CC1` [Example 313, (2S,3R,4R,5S)-1-(((1s,4R)-4-(1,1-difluoroethyl)cyclohexyl)methyl)-2-(hydroxymethyl)piperidine-3,4,5-triol], for which, in experiment [1], the “binding specificity” value is “enhanced binding specificity”. For the same molecule, on human GBA2, the “GBA2 IC50” value is reported as “∗∗∗”.

For `CC(F)(F)[C@H]1CC[C@H](CN2C[C@H](O)[C@@H](O)[C@H](O)[C@@H]2CO)CC1` [Example 314, (2S,3R,4R,5S)-1-(((1r,4S)-4-(1,1-difluoroethyl)cyclohexyl)methyl)-2-(hydroxymethyl)piperidine-3,4,5-triol], the “binding specificity” value in experiment [1] was “enhanced binding specificity”. Also, the “GBA2 IC50” value on human GBA2 was “∗∗∗”.
